Experimental data reported in ChEMBL document CHEMBL1687862, “Prenylated flavanones with anti-tyrosinase activity from Dalea boliviana” (J Nat Prod, 2011).

What was measured:
Tyrosinase = molecular target: T1, Tyrosinase (Agaricus bisporus, UniProt O42713); test: (§1) Inhibition of mushroom tyrosinase preincubated for 10 mins before addition of 1.7 mM L-tyrosine measured after 20 mins by spectrophotometric method
T1 sequence (O42713 whole entry): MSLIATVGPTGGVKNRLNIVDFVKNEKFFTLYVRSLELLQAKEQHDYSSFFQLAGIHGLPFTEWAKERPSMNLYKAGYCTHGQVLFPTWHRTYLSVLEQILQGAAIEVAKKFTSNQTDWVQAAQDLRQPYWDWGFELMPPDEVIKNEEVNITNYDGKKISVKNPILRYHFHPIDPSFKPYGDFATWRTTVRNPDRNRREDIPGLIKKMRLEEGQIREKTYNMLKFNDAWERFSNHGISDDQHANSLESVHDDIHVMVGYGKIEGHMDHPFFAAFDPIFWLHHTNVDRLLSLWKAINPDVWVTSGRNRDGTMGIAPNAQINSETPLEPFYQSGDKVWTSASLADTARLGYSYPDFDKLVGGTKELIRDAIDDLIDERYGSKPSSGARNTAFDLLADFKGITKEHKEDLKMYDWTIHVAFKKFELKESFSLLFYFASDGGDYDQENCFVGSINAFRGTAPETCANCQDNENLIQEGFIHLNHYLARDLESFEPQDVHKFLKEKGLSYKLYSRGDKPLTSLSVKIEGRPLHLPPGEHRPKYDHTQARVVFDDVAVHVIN

[1] = molecular target: T2, Tyrosinase (Agaricus bisporus) (UniProt O42713); test: Inhibition of mushroom tyrosinase at 100 uM preincubated for 10 mins before addition of 1.7 mM L-tyrosine measured after 20 mins by spectrophotometric method
T2 sequence (whole entry): T1 sequence (O42713 whole entry)

[2] = molecular target: T2, Tyrosinase (Agaricus bisporus); test: as §1

CC(C)=CCc1cccc([C@@H]2CC(=O)c3c(O)cc(O)c(CC=C(C)C)c3O2)c1O
IC50 (Tyrosinase): 68.5 µM
inhibition [1]: 87.8%

CC(C)=CCc1cccc([C@@H]2CC(=O)c3c(O)cc4c(c3O2)C=CC(C)(C)O4)c1O
inhibition [1]: 6.4%

C=CC(C)(C)c1ccc(O)c([C@@H]2CC(=O)c3c(O)cc(O)c(CC=C(C)C)c3O2)c1
IC5 [2]: 27.5 µM
inhibition [1]: 82.1%

O=C1C[C@@H](c2ccc(O)cc2)Oc2cc(O)cc(O)c21
inhibition [1]: 2.8%

COc1ccc([C@@H]2CC(=O)c3c(O)cc(O)cc3O2)cc1O
inhibition [1]: 0%

CC1(C)C=Cc2c(cc(O)c3c2O[C@H](c2ccccc2)CC3=O)O1
inhibition [1]: 16.2%
